Data: ChEMBL document CHEMBL1201862, “PubChem BioAssay data set” (2004)
The source made the active and inactive calls.

Assays:
Cytochrome P450 2C9 = Cytochrome P450 2C9 (Homo sapiens, UniProt P11712)
cells [1] = assay: cells
[2] = HEp-2 cell cytotoxicity, dose response, cytotoxicity control for RSV inhibitor project, HTS (AID 2410); format: functional; settings: human respiratory syncytial virus
Cytochrome P450 2C19 = Cytochrome P450 2C19 (Homo sapiens, UniProt P33261); assay: Cytochrome panel assay with activity outcomes. Panel member name: p450-cyp2c19 Compounds with AC50 equal or less than 10 uM are considered active; format: functional
Cytochrome P450 1A2 = target: T1, Cytochrome P450 1A2 (Homo sapiens, UniProt P05177);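 also: PubChem cytochrome P450 panel assay, CYP1A2 panel member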
T1 sequence (P05177 whole entry): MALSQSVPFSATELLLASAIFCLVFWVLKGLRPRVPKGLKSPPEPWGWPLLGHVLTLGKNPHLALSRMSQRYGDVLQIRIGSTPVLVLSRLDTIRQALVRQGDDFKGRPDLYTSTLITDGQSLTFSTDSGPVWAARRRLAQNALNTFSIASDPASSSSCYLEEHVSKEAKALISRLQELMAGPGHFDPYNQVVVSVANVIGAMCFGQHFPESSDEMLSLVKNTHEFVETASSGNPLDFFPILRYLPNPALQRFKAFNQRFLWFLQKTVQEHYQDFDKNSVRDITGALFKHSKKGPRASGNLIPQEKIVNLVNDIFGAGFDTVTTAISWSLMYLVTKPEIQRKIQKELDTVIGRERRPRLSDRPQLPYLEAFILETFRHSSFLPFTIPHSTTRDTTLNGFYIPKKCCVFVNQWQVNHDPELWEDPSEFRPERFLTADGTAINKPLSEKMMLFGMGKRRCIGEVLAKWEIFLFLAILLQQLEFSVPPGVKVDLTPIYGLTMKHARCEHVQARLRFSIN

[3] = growth suppression of PTEN-null colon cells, dose response, cell-based, HCT116 PTEN knockout (AID 1047); format: functional;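 also: HCT116 colon tumor cells with PTEN knocked out; cells exposed to compound for 60 hours before readout; potency for loss of cell viability measured by luminescence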
[4] = target: T2, DNA repair and recombination protein RAD54-like (Homo sapiens, UniProt Q92698); assay: inhibitors of human RAD54 branch migration, confirmation, biochemical, fluorescence, cherry-picked samples, dose series (AID 651657); format: functional
T2 sequence (Q92698 whole entry): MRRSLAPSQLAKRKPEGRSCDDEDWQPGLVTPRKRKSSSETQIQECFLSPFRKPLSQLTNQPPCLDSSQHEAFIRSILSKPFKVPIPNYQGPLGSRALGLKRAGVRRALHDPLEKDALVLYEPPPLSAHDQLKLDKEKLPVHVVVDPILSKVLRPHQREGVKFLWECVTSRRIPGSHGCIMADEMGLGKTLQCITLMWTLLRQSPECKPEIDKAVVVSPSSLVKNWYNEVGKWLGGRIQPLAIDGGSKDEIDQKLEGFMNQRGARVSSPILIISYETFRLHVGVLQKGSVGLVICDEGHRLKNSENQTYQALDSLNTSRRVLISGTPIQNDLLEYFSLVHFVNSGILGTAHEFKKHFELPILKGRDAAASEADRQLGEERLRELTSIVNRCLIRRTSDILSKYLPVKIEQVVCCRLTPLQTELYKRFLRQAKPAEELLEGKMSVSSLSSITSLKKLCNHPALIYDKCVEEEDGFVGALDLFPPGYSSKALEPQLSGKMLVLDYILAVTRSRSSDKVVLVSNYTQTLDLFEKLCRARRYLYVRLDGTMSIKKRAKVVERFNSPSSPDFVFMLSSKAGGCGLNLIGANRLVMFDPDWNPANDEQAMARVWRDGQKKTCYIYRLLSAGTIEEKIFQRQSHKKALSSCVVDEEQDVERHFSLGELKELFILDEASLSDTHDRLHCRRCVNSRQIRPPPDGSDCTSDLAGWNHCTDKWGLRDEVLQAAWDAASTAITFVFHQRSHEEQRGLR

[5] = growth suppression of beta-catenin-knockout colon cells, dose response, cell-based, HCT116, human colon tumor (AID 1045); format: functional;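 also: HCT116 colon tumor cells with beta catenin knocked out; cells exposed to compound for 60 hours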
[6] = HepG2 cell cytotoxicity, dose response, cytotoxicity control, cherry-picked samples (AID 1159577); format: functional, cell-based
[7] = P. falciparum Dd2 growth inhibitors, dose response, SYBR Green, cherry-picked samples (AID 1159567); format: functional, cell-based
Estrogen receptor beta = Estrogen receptor beta (Homo sapiens, UniProt Q92731); assay: ERβ–SRC-3 coactivator interaction inhibitors, confirmation, orthogonal assay, biochemical, ELISA, streptavidin-HRP readout (AID 1060)
[8] = target: T3, RNA-binding protein pos-1 (Caenorhabditis elegans, UniProt G5EF15); assay: inhibitors of POS-1/mex-3 RNA binding, dose response, biochemical, fluorescence polarization (AID 1964);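 also: purified POS-1 fused to maltose binding protein made in E. coli; potency of compounds blocking POS-1 binding to fluorescent RNA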
T3 sequence (G5EF15 whole entry): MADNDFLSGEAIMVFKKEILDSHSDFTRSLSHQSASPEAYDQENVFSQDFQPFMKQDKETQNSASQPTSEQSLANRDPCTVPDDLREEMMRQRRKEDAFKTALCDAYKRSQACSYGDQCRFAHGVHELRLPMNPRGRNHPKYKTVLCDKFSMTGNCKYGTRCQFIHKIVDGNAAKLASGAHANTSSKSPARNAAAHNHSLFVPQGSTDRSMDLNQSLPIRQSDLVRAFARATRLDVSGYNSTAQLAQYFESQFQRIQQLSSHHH

[9] = target: T4, Zinc finger protein mex-5 (Caenorhabditis elegans, UniProt Q9XUB2); assay: MEX-5/TCR-2 RNA interaction inhibitors, dose response, biochemical, C. elegans, fluorescence polarization (AID 1960)
T4 sequence (Q9XUB2 whole entry): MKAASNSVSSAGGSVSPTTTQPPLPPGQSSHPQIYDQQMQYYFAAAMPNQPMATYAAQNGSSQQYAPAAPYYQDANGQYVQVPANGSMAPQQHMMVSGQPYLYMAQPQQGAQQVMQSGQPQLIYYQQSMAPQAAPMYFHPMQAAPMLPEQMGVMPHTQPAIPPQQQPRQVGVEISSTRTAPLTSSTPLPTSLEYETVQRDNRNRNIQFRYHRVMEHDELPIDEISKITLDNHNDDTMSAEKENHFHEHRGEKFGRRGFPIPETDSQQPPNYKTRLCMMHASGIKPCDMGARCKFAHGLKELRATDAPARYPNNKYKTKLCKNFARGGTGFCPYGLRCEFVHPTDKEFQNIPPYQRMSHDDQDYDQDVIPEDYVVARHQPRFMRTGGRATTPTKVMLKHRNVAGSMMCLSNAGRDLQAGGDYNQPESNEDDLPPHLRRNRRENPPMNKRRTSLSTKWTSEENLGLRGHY

[10] = P. falciparum Dd2 growth inhibitors, dose response, SYBR Green, dry powder samples (AID 1159566); format: functional, cell-based;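 also: potency for growth inhibition with lower SYBR green DNA signal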
[11] = P. falciparum 3D7-ScDHODH growth inhibitors, dose response, SYBR Green, dry powder samples (AID 1159570); format: functional, cell-based;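 also: parasite growth measured after 72 hours of compound exposure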
[12] = HepG2 cell cytotoxicity, dose response, cytotoxicity control, plate reader, dry powder samples (AID 1159569); format: functional, cell-based;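 also: inhibitor potency with signal falling toward the positive control level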
[13] = P. falciparum ATP4 D1247Y mutant growth inhibitors, dose response, NITD609-resistant line, SYBR Green, dry powder (AID 1159571); format: functional, cell-based;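 also: parasites synchronized at ring stage by sorbitol before testing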
cells [14] = format: functional
[15] = cytotoxicity toward NIH3T3 fibroblasts, dose response, counter-screen, cell-based, ATP luminescence, mouse fibroblasts (AID 2010); format: functional;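 also: cells exposed to compound for about 90 hours before reading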
[16] = inhibitors of intracellular T. cruzi replication, confirmation, NIH3T3 host cells, beta-gal luminescence (AID 2044); format: functional, cell-based;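 also: intracellular parasites grown in NIH/3T3 mouse fibroblasts as host cells; luminescent beta-galactosidase reporter signal from transgenic T. cruzi replicating inside host cells; inhibitors lower the luminescence signal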
Protein skinhead-1 = target: T5, Protein skinhead-1 (Caenorhabditis elegans, UniProt P34707); format: functional
T5 sequence (P34707 whole entry): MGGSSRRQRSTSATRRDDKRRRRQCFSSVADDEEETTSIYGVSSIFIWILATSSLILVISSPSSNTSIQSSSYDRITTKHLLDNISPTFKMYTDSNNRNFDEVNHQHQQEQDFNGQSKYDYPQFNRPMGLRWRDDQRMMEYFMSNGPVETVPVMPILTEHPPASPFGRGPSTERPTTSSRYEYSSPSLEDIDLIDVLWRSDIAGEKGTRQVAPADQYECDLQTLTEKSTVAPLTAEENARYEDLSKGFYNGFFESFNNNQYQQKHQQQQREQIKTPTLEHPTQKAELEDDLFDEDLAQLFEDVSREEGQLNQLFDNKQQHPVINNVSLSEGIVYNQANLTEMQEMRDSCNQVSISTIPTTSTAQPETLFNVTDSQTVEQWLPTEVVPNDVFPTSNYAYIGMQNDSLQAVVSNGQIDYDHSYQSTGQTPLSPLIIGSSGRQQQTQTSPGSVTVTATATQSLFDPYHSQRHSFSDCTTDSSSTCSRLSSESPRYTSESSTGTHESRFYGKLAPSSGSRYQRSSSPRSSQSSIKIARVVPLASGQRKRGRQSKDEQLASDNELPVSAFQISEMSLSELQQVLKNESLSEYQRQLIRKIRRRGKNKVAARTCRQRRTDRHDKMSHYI

Cytochrome P450 3A4 = Cytochrome P450 3A4 (Homo sapiens, UniProt P08684);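 also: CYP3A4 tested as one member of a cytochrome P450 panel screen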
Chain of Cytochrome P450 3A4 (P08684 whole entry): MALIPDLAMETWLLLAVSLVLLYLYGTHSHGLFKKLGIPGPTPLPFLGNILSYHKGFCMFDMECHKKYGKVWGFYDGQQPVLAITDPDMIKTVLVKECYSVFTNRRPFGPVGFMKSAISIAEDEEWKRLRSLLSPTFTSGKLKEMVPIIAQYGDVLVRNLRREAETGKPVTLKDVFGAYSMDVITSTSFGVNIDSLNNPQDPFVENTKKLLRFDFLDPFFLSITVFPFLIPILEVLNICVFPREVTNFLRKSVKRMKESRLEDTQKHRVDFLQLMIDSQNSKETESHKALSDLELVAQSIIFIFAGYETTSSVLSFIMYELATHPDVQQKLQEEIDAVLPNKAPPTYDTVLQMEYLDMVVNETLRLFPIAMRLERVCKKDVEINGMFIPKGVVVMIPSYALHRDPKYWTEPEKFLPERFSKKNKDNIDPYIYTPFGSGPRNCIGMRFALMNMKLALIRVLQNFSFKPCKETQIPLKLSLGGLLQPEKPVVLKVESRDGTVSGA

Chain of Cytochrome P450 2C19 (P33261 whole entry): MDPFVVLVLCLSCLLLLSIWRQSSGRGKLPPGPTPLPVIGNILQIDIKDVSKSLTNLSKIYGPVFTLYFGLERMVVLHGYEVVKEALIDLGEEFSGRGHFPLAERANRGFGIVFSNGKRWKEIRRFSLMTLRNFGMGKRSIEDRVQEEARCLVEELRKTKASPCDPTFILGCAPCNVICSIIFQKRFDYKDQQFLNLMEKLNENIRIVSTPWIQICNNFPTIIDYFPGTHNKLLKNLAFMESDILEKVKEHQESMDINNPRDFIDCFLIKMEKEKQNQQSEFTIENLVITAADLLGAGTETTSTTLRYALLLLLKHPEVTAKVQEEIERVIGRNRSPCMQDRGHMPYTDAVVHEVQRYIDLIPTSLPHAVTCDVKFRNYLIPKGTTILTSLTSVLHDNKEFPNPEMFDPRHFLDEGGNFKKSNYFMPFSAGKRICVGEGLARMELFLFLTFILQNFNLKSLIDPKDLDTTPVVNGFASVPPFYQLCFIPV
Chain of Estrogen receptor beta (Q92731 whole entry, the tested form may be a part): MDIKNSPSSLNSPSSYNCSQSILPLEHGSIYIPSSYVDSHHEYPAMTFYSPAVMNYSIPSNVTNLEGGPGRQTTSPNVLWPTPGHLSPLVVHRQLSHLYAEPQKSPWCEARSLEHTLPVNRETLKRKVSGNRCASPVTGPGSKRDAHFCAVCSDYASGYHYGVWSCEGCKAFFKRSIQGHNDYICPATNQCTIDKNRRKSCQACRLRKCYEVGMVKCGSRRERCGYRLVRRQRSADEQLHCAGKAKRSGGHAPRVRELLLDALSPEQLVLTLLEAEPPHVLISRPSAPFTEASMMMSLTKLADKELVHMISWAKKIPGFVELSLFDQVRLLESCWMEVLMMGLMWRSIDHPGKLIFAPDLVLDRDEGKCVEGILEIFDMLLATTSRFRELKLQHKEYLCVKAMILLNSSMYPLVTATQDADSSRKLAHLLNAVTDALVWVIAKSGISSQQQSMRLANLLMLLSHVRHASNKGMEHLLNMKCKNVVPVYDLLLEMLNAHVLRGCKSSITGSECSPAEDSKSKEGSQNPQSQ
Chain of Cytochrome P450 2C9 (P11712 whole entry): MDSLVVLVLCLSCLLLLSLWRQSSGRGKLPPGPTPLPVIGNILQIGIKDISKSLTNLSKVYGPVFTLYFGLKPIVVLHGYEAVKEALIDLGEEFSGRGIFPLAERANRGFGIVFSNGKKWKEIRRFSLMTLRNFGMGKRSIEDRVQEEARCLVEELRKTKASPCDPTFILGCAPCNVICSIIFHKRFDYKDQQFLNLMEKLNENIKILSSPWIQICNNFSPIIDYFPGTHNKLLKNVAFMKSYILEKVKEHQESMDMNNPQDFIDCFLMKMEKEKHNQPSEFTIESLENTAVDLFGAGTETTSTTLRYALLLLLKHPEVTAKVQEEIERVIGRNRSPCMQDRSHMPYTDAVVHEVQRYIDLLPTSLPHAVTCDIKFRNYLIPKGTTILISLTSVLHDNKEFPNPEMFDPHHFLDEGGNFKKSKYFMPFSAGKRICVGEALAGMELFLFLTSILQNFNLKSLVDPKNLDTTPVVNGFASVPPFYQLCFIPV

COc1cc(C(=O)NCCC(C)C)c([N+](=O)[O-])cc1OC
AC50 (Cytochrome P450 2C9): inconclusive

N#Cc1nc(-c2cccc3ccccc23)oc1N
IC50 (cells [1]): 23.2 µM (active) | CC50 [2]: > 50 µM (active)

COc1ncc2nc(C)c(=O)n(CCC#N)c2n1
AC50 (Cytochrome P450 2C9): inconclusive | AC50 (Cytochrome P450 2C19): inconclusive | AC50 (Cytochrome P450 1A2): 15.8 µM (inconclusive)

CCN(CC)CCNC(=O)c1cc2c(-c3ccc(Cl)cc3)nn(C)c2s1
EC50 [3]: 5.5 µM (active) | AC50 [4]: 6.7 µM (active) | EC50 [5]: 4.09 µM (active)

COc1cccc(CN2CC3(C2)CN(C(=O)Nc2ccc(F)cc2)[C@@H](CO)c2c3c3ccc(OC)cc3n2C)c1
AC50 [6]: 11.8 µM (active) | AC50 [7]: 2.98 µM (active)

CC1CCCC(C)N1CC(=O)Nc1sc2c(c1C#N)CCC2 (stereo not drawn)
IC50 (Estrogen receptor beta): 22.5 µM (not active)

CCCC(=O)Nc1ccc(-c2nc3cc(C)c(C)cc3o2)cc1
IC50 (cells [1]): 48.2 µM (active)

OC(COc1ccc(C2C=CCC2)cc1)CN1CCCCC1 (stereo not drawn)
EC50 [3]: 40.2 µM (active) | EC50 [5]: 32 µM (active) | IC50 (Estrogen receptor beta): 13.1 µM (not active)

CC(=N)/C(C#N)=C(/O)CSc1ncnc2ccccc12
IC50 (cells [1]): 17.9 µM (active) | EC50 [8]: > 300 µM (not active) | EC50 [9]: 8.02 µM (active)

NCc1csc(Nc2nncc3ccccc23)n1
AC50 [4]: 23.7 µM (active)

O=C(c1ccccc1)N(Cc1ccco1)C1CCS(=O)(=O)C1 (stereo not drawn)
AC50 (Cytochrome P450 2C9): inconclusive | AC50 (Cytochrome P450 2C19; read-out: AC50): 31.6 µM (inconclusive)

COc1ccc(C(=O)N2CC(c3ccc(Cl)cc3)CC2=O)cc1 (stereo not drawn)
IC50 (cells [1]): 31.5 µM (active)

COCCCn1c(Cc2csc(Nc3cccc(Cl)c3)n2)nnc1SCC(=O)OC
IC50 (Estrogen receptor beta): 17 µM (not active)

COc1ccc2c3c(n(C)c2c1)[C@@H](CO)N(Cc1ccccc1OC)CC31CCN(CC2CC2)CC1
AC50 [10]: 0.522 µM (active) | AC50 [11]: 2.52 µM (active) | AC50 [6]: > 39 µM (inactive) | AC50 [12]: 34.5 µM (active) | AC50 [7]: 1.29 µM (active) | AC50 [13]: 1.07 µM (active)

COc1ccccc1S(=O)(=O)N(C)C[C@@H]1Oc2cc(C#CCC(C)C)ccc2S(=O)(=O)N([C@@H](C)CO)C[C@H]1C
AC50 [10]: 0.609 µM (active) | AC50 [11]: 0.521 µM (active) | AC50 [12]: > 100 µM (inactive) | AC50 [7]: 0.652 µM (active) | AC50 [13]: 0.331 µM (active)

CSc1ccccc1NC(=O)c1cc(C(C)C)on1
IC50 (cells [14]): 27.9 µM (active)

CCOC(=O)N/N=C(/C)c1ccc([N+](=O)[O-])o1
EC50 [15]: > 30 µM (not active) | AC50 (Cytochrome P450 2C9): inconclusive | AC50 (Cytochrome P450 2C19; read-out: AC50): 25.1 µM (inconclusive) | EC50 [16]: 0.589 µM (active)

c1ccc(-c2nnc(SCc3nnc(-c4cccs4)o3)o2)cc1
IC50 (cells [14]): 30.4 µM (active)

CCN(CC)S(=O)(=O)c1cccc2c(N(C)C)cccc12
AC50 (Cytochrome P450 2C9): inconclusive | IC50 (Protein skinhead-1): > 100 µM (inactive)

Cc1ccc(-c2ccc([C@@H]3[C@@H]4CN(Cc5cccnc5)C[C@H]3N4)cc2)cc1
AC50 [6]: 9.99 µM (active) | AC50 [7]: 0.457 µM (active)

c1ccc(-c2ccc([C@@H]3[C@@H]4CN(Cc5cccnc5)C[C@H]3N4)cc2)cc1
AC50 [6]: 9.31 µM (active) | AC50 [7]: 0.472 µM (active)

CSCCOC(=O)COc1ccc(/C=N/NC(=O)c2c(Cl)cnn2C)cc1
IC50 (cells [14]): 4.7 µM (active)

O=C(Nc1nnc(-c2ccc(Br)cc2)o1)C1=COCCO1
IC50 (cells [14]): 5.97 µM (active)

O=C(N/N=C/c1cccc(F)c1)c1csc2c1CCCC2
AC50 (Cytochrome P450 2C9): inconclusive | AC50 (Cytochrome P450 3A4): 15.8 µM (inconclusive)

CN1CCN(c2nc(-c3cccc([N+](=O)[O-])c3)nc3ccccc23)CC1
AC50 [4]: 7.36 µM (active)

C/C=C/c1ccc([C@H]2[C@@H]3CN(C(=O)Nc4ccc(C(F)(F)F)cc4)C[C@H]2N3)cc1
AC50 [10]: 5.42 µM (active) | AC50 [11]: 4.43 µM (active) | AC50 [6]: 25.2 µM (active) | AC50 [12]: 25.8 µM (active) | AC50 [7]: 3.42 µM (active) | AC50 [13]: 4.31 µM (active)
